Measurements published in patent publication US20260078120A1, “SUBSTITUTED PYRIDOPYRIMIDINONES” (MIRATI THERAPEUTICS, INC., priority 2022, published 2026).

What was measured:
Type in all cases: cell-based
[1] = system: T47D (PI3Kα H1047R mutant) cells; experiment: Inhibition of pAKT formation, alphaLISA SureFire Ultra AKT 1/2/3 (pS473), T47D cells; conditions: Homo sapiens, T47D, T47D (PI3Kα H1047R mutant) cells; inhibition of pAKT (pS473) formation; approximately one hour or 24 hours treatment; read-out: T47D pAKT (H1047R mutant) IC50
Procedure: The ability of a compound of Formula (I) to inhibit the formation of pAKT was measured using alphaLISA Surefire Ultra AKT 1/2/3 (pS473) Assay Kit (#ALSU-PAKT-B50K) was obtained from Perkin Elmer (Waltham, MA).
To prepare assay plates for pAKT alphaLISA assays, cells were trypsinized, resuspended in fresh media, and viable cells were counted utilizing trypan blue exclusion. Prior to seeding, cells were washed with PBS and resuspended in HBSS (Gibco, #14025092). T47D (12,000/w), SKBR3(12,000/w), or MKN1(24,000/w) cells were seeded at 12 μl per well in a solid white flat bottom 384 cell culture plate (Perkin Elmer #6007680).
Immediately after seeding, cells were dosed using an Echo Liquid Handler (Beckman Coulter) with compounds at a […] starting concentration and serially diluted (1:4) for a total of 10 concentrations. […] Cells were incubated with the compounds (solubilized in DMSO) for approximately one hour or 24 hours at 37° C. After one hour (or 24 hours) of treatment, cells were lysed with 3 μl of the 5× lysis buffer (provided and incubated at room temperature for 15 min on a microtiter plate shaker). Once cells were sufficiently lysed, 7.5 μl of the acceptor bead mix (made using the manufacturers recommended dilutions) was added to each well and left on the microtiter plate shaker for 1 min prior to incubating plates at room temperature for one hour, in the absence of light. After one hour of incubation with the acceptor bead mix, 7.5 μl of the donor bead mix (made using the manufacturers recommended dilutions) was added to each well and left on the microtiter plate shaker for 1 min prior to incubating plates at room temperature overnight in the absence of light. Plates were then imaged the following day using a CLARIOstar microplate reader (BMG Labtech, Germany).
Percent of control values were calculated by subtracting the average signal from the positive control (alpelisib) treated wells from all treated wells (including DMSO control wells) and then divided by the average signal from the vehicle DMSO treated control wells. Percent of vehicle control values were plotted as log (inhibitor) vs. response-Variable slope (four parameters) for curve fitting and IC50 values were determined using XLfit.
Key: N.D. =not determined
Inhibition of pAKT in T47D (PI3Kα H1047R mutant) cells by Exemplary Compounds of Formula (I)

[2] = system: T47D (PI3Kα H1047R mutant) cells; experiment: CellTiter-Glo 2.0 luminescent cell viability assay, 72 hours, T47D cells; conditions: T47D (PI3Kα H1047R mutant) cells, CellTiter-Glo, approximately 72 hours, read-out: T47D (H1047R mutant) Viability IC50
Method in brief: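 Viability was measured by CellTiter-Glo 2.0 luminescence after approximately 72 h of compound exposure at 37° C. Plating was 1000 cells per well the day before dosing, with ten 1:4 dilutions from a 10 µM top concentration. Values as percent of vehicle were fitted by variable-slope log(inhibitor) regression to give IC50.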

[3] = system: SKBR3 (PI3Kα wild type) cells; experiment: CellTiter-Glo 2.0 luminescent cell viability assay, 72 hours, SKBR3 cells; conditions: Homo sapiens, SK-BR-3, 72 h, SKBR3 (PI3Kα wild type) cells, CellTiter-Glo, approximately 72 hours; read-out: SKBR3 (WT) Viability IC50
Method in brief: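 Viability measured via CTG luminescence following roughly 72 hours of compound exposure at 37° C. Dosing used a 10 um starting concentration diluted 1:4 over 10 points; percent-of-vehicle data fitted with a variable-slope four-parameter model for IC50.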

IC50 [1] [nM]	IC50 ([2]; Homo sapiens, T47D, 72 h) [nM]	IC50 [3] [nM]	IC50 [2] [nM]	SMILES
2.64	109	> 10000		Cc1cc([C@@H](C)Nc2ccccc2C(=O)O)c2nc(N3CCC(F)(F)[C@H](C)C3)c(C)c(=O)n2c1 [Example 10-126, 2-(((R)-1-(2-((R)-4,4-difluoro-3-methylpiperidin-1-yl)-3,7-dimethyl-4-oxo-4H-pyrido[1,2-a]pyrimidin-9-yl)ethyl)amino)benzoic acid]
2.23	80.2	> 10000		Cc1cc([C@@H](C)Nc2ccccc2C(=O)O)c2nc(N3Cc4cc(F)c(F)cc4C3)c(C#N)c(=O)n2c1 [Example 10-87, (R)-2-((1-(3-cyano-2-(5,6-difluoroisoindolin-2-yl)-7-methyl-4-oxo-4H-pyrido[1,2-a]pyrimidin-9-yl)ethyl)amino)benzoic acid]
2.34	45.8	8070		Cc1cc([C@@H](C)Nc2ccccc2C(=O)O)c2nc(N3CCN(c4ccc(C#N)cc4)[C@@H](C)C3)c(C)c(=O)n2c1 [Example 10-21, 2-(((R)-1-(2-((S)-4-(4-cyanophenyl)-3-methylpiperazin-1-yl)-3,7-dimethyl-4-oxo-4H-pyrido[1,2-a]pyrimidin-9-yl)ethyl)amino)benzoic acid]
3.82	86.2	> 10000		Cc1cc([C@@H](C)Nc2ccccc2C(=O)O)c2nc(N3CC4C(C3)C4(F)F)c(C#N)c(=O)n2c1 (stereo partly drawn) [Example 10-100, 2-(((1R)-1-(3-cyano-2-(6,6-difluoro-3-azabicyclo[3.1.0]hexan-3-yl)-7-methyl-4-oxo-4H-pyrido[1,2-a]pyrimidin-9-yl)ethyl)amino)benzoic acid]
3.95	73.2	> 10000		COC1(C)CCN(c2nc3c([C@@H](C)Nc4ccccc4C(=O)O)cc(C)cn3c(=O)c2C)CC1 [Example 10-56, (R)-2-((1-(2-(4-methoxy-4-methylpiperidin-1-yl)-3,7-dimethyl-4-oxo-4H-pyrido[1,2-a]pyrimidin-9-yl)ethyl)amino)benzoic acid]
2.19	56.5	> 10000		Cc1cc([C@@H](C)Nc2ccccc2C(=O)O)c2nc(N3CCN(c4nccs4)CC3)c(C)c(=O)n2c1 [Example 10-33, (R)-2-((1-(3,7-dimethyl-4-oxo-2-(4-(thiazol-2-yl)piperazin-1-yl)-4H-pyrido[1,2-a]pyrimidin-9-yl)ethyl)amino)benzoic acid]
1.05	110	> 10000		Cc1cc([C@@H](C)Nc2ccccc2C(=O)O)c2nc(N3CCC(F)(F)C3)c(C#N)c(=O)n2c1 [Example 10-75, (R)-2-((1-(3-cyano-2-(3,3-difluoropyrrolidin-1-yl)-7-methyl-4-oxo-4H-pyrido[1,2-a]pyrimidin-9-yl)ethyl)amino)benzoic acid]
2.55	82.5	> 10000		Cc1cc([C@@H](C)Nc2ccccc2C(=O)O)c2nc(N3CCN(CC(F)F)CC3)c(C)c(=O)n2c1 [Example 10-91, (R)-2-((1-(2-(4-(2,2-difluoroethyl)piperazin-1-yl)-3,7-dimethyl-4-oxo-4H-pyrido[1,2-a]pyrimidin-9-yl)ethyl)amino)benzoic acid]
2.02	83.6	> 10000		Cc1cc([C@@H](C)Nc2ccccc2C(=O)O)c2nc(N3CCN(c4ccc(C#N)cc4F)CC3)c(C#N)c(=O)n2c1 [Example 10-94, (R)-2-((1-(3-cyano-2-(4-(4-cyano-2-fluorophenyl)piperazin-1-yl)-7-methyl-4-oxo-4H-pyrido[1,2-a]pyrimidin-9-yl)ethyl)amino)benzoic acid]
6.72	92.5	> 10000		Cc1cc([C@@H](C)Nc2ccccc2C(=O)O)c2nc(N3CCC4(CC4)C(F)(F)C3)c(C)c(=O)n2c1 [Example 10-107, (R)-2-((1-(2-(4,4-difluoro-6-azaspiro[2.5]octan-6-yl)-3,R7-dimethyl-4-oxo-4H-pyrido[1,2-a]pyrimidin-9-yl)ethyl)amino)benzoic acid]
0.639	31	> 10000		Cc1cc([C@@H](C)Nc2ccccc2C(=O)O)c2nc(N3CCC(F)(F)CC3)c(Br)c(=O)n2c1 [Example 10-12, (R)-2-((1-(3-bromo-2-(4,4-difluoropiperidin-1-yl)-7-methyl-4-oxo-4H-pyrido[1,2-a]pyrimidin-9-yl)ethyl)amino)benzoic acid]
572		> 10000	75.8	Cc1cc([C@@H](C)Nc2ccccc2C(=O)O)c2nc(N3Cc4cc(F)c(F)cc4C3)c(C)c(=O)n2c1 [Example 10-140, (R)-2-((1-(2-(5,6-difluoroisoindolin-2-yl)-3,7-dimethyl-4-oxo-4H-pyrido[1,2-a]pyrimidin-9-yl)ethyl)amino)benzoic acid]
2.39	104	> 10000		COC1CCN(c2nc3c([C@@H](C)Nc4ccccc4C(=O)O)cc(C)cn3c(=O)c2C#N)CC1 [Example 10-123, (R)-2-((1-(3-cyano-2-(4-methoxypiperidin-1-yl)-7-methyl-4-oxo-4H-pyrido[1,2-a]pyrimidin-9-yl)ethyl)amino)benzoic acid]
3.8	107	> 10000		Cc1cc([C@@H](C)Nc2ccccc2C(=O)O)c2nc(N3CCN(c4ccc(C#N)cc4C)CC3)c(C)c(=O)n2c1 [Example 10-77, (R)-2-((1-(2-(4-(4-cyano-2-methylphenyl)piperazin-1-yl)-3,7-dimethyl-4-oxo-4H-pyrido[1,2-a]pyrimidin-9-yl)ethyl)amino)benzoic acid]
2.67	93.7	8830		Cc1cc([C@@H](C)Nc2ccccc2C(=O)O)c2nc(N3CCN(c4ccc(C#N)cc4)CC3C)c(C#N)c(=O)n2c1 (stereo partly drawn) [Example 10-109, 2-(((1R)-1-(3-cyano-2-(4-(4-cyanophenyl)-2-methylpiperazin-1-yl)-7-methyl-4-oxo-4H-pyrido[1,2-a]pyrimidin-9-yl)ethyl)amino)benzoic acid]
2.89	93.6	> 10000		Cc1cc([C@@H](C)Nc2ccccc2C(=O)O)c2nc(N3CCC4(CC4)C(F)(F)C3)c(C#N)c(=O)n2c1 [Example 10-108, (R)-2-((1-(3-cyano-2-(4,4-difluoro-6-azaspiro[2.5]octan-6-yl)-7-methyl-4-oxo-4H-pyrido[1,2-a]pyrimidin-9-yl)ethyl)amino)benzoic acid]
1.47	62.5	5030		Cc1cc([C@@H](C)Nc2ccccc2C(=O)O)c2nc(N3CC(C)C(F)(F)C3)c(C#N)c(=O)n2c1 (stereo partly drawn) [Example 10-44, 2-(((1R)-1-(3-cyano-2-(3,3-difluoro-4-methylpyrrolidin-1-yl)-7-methyl-4-oxo-4H-pyrido[1,2-a]pyrimidin-9-yl)ethyl)amino)benzoic acid]
2.52	62.2	> 10000		Cc1cc([C@@H](C)Nc2ccccc2C(=O)O)c2nc(N3Cc4ccccc4C3)c(C#N)c(=O)n2c1 [Example 10-43, (R)-2-((1-(3-cyano-2-(isoindolin-2-yl)-7-methyl-4-oxo-4H-pyrido[1,2-a]pyrimidin-9-yl)ethyl)amino)benzoic acid]
1.38	111	> 10000		Cc1cc([C@@H](C)Nc2ccccc2C(=O)O)c2nc(N3CC[C@@H]3C)c(C#N)c(=O)n2c1 (single isomer, unassigned) [Example 10-95]
3.36	72.2	> 10000		Cc1cc([C@@H](C)Nc2ccccc2C(=O)O)c2nc(N3CC[C@H]3CF)c(C#N)c(=O)n2c1 (single isomer, unassigned) [Example 10-54]
